These are literature values, as cited in PMC5156321 (Natural product communications, 2014).

Series [1] relates to matrix metalloproteinase-3 (MMP-3). The settings on record: for IC50: read-out: MMP-3 IC50.
The next series has as its system caspase-1. The settings on record: for Caspase-1 IC100: tested at 100 μg/mL and 10 μg/mL; for caspase-1 % inhibition: test concentration 100 μg,mL; for IC50: read-out: Caspase-1 IC50.
The subject of series [2] is IL-1β production in induced THP-1 cells. As to conditions: for inhibition of cytokine production in induced inflammasome assay: at the nm level, Figure 11; for IC50: read-out: IL-1β production (IC50), LPS and multi-walled carbon nanotubes-induced THP-1 cells.
The subject of another series is leukemia RPMI-8226. As to conditions: NCI-DTP 60.
The test system of a further series is leukemia SR. The settings on record: NCI-DTP 60.
The test system of series [3] is non-small cell lung cancer NCI-H522. As to conditions: NCI-DTP 60.
Series [4] relates to non-small cell lung cancer NCI-H460. The settings on record: NCI-DTP 60.
The subject of the next series is leukemia CCRFCEM. The settings on record: NCI-DTP 60.
A further series relates to leukemia HL-60. As to conditions: NCI-DTP 60.
The next series deals with all leukemia cell lines. The settings on record: NCI-DTP 60.
Series [5] has as its system HeLaS3. As to conditions: read-out: IC50 (μM) Alamar Blue Viability HeLaS3; tested at MSKCC. For orientation: Alamar Blue is a resazurin reagent that responds to reducing activity.
The subject of series [6] is UMUC3. As to conditions: read-out: IC50 (μM) Alamar Blue Viability UMUC3; tested at MSKCC.
Series [7] has as its system HeLaS3. The settings on record: read-out: IC50 (μM) Nuclei Count Proliferation HeLaS3; tested at MSKCC.
In series [8] the test system is UMUC3. The settings on record: read-out: IC50 (μM) Nuclei Count Proliferation UMUC3; tested at MSKCC.
The test system of the next series is H3255. As to conditions: read-out: IC50 (μM) Nuclei Count Proliferation H3255; tested at MSKCC.
The test system of the next series is Y79. As to conditions: read-out: IC50 (μM) Nuclei Count Proliferation Y79; tested at MSKCC.
Setting [9] is: test concentrations 100 μg/mL and 10 μg/mL.

Read-outs that look alike come from different tables or passages of the source.

Regarding `COC(=O)[C@]12C(=O)[C@H](C)O[C@@H]3OC(=O)[C@](C)(C[C@H]4[C@]5(CO5)C5=CC(=O)OC(C)(C)C5=CC[C@@]41C)[C@@H]32` [B (18), berkeleyacetal B], the “MMP-3 inhibition, concentration range” value in [1] is “mM range”. Further, the “caspase-1 inhibition, concentration range” value with caspase-1 is “mM range”.
On to `CC(=O)N[C@H](C(=O)O[C@H]1CCC(C)(C)[C@@H]2CC=C3C(=O)OC[C@]3(O)[C@@]12C)C(C)C` [B (32), Berkedrimane B], for which the “inhibition of cytokine production in induced inflammasome assay” value (“inhibition of cytokine production” for short) in series [2] is given as “completely inhibited”. Besides, the “caspase-1 IC50” value on caspase-1 was 50 µg/mL.
Regarding `C/C=C/C1=CC2=CC(=O)[C@@H](C)[C@H](O)[C@H]2CO1` [Berkazaphilone A (25), Berkazaphilone A], in the series with caspase-1, the “Caspase-1 IC100” value is recorded as “Caspase-1: 100 μg/mL”.
Turning to `C/C=C/C1=CC2=CC(=O)[C@](C)(OC(=O)c3c(C)cc(O)cc3O)[C@H](O)[C@H]2CO1` [Berkazaphilone B (26), berkazaphilone B], in the series with leukemia RPMI-8226, the “leukemia RPMI-8226 log10 GI50” value is given as “leukemia RPMI-8226: log10 GI50 (−5.67)”. The “concentration completely inhibitory to IL-1β production in THP-1 cells” value in series [2] is 2.0 µg/mL. Also, in the series with caspase-1, the “Caspase-1 IC100” value was “Caspase-1: 10 μg/mL”.
On to `C/C=C/C1=CC2=CC(=O)[C@](C)(O)[C@H](OC(=O)c3c(C)cc(O)cc3O)[C@H]2CO1` [Berkazaphilone C (27), berkazaphilone C], for which, in series [2], the “concentration completely inhibitory to IL-1β production in THP-1 cells” value is 20 µg/mL and the “inhibition of cytokine production” value is listed as “completely inhibited”. The “Caspase-1 IC100” value in the series on caspase-1 is “Caspase-1: 10 μg/mL”. Moreover, the “leukemia SR log10 GI50” value with leukemia SR is listed as “leukemia SR: log10 GI50 (−6.42)”.
For the molecule `CC(C)C[C@H]1C[C@H]([C@@H](O)CC(=O)Cc2ccccc2)C(=O)N1` [Berkeleyamide A (21), Berkeleyamide A], in [3], the “NCI-H522 log10 GI100” value is given as “log10 GI100: 10 μM;”.
With `C=C1[C@@]2(C)C[C@H]3C(C)=C4CC(=O)OC(C)(C)C4=CC[C@]3(C)[C@]1(C(=O)OC)C(=O)[C@@](C)(O)C2=O` [Berkeleydione (8), berkeleydione], in series [4], the “NCI-H460 log10 GI50” value is reported as “NCI-H460: log10 GI50 −6.40” and the “activity towards NCI-H460” value is reported as “selective activity”. Also, the IC50 in series [2] is 4.4 µM. Besides, in series [1], the IC50 was 22 µM. In the series on caspase-1, the caspase-1 % inhibition is 89%.
As to `C=C1[C@@]2(C)C[C@H]3[C@]4(C)CC[C@@H](O)C(C)(C)[C@H]4CC[C@]3(C)[C@]1(C(=O)OC)C(=O)[C@@](C)(O)C2=O` [Berkeleyone A (12), Berkeleyone A], the IC50 in [2] was 2.7 µM. Further, in the series on caspase-1, the caspase-1 % inhibition was 68%.
As to `C=C1[C@@]2(C)C[C@@H]3[C@](C)(CC=C4C(C)(C)OC(=O)CC[C@]43C)[C@]1(C(=O)OC)C(=O)[C@@](C)(O)C2=O` [Berkeleyone B (13), Berkeleyone B], in series [2], the IC50 was 3.7 µM. Also, the caspase-1 % inhibition in the series on caspase-1 is 100%.
Take `C=C(C)C1=CC[C@@]2(C)[C@@H](C[C@]3(C)C(=C)[C@@]2(C(=O)OC)C(=O)[C@@](C)(O)C3=O)[C@]1(C)CCC(=O)O` [Berkeleyone C (14), Berkeleyone C]: the IC50 in series [2] was 37.8 µM. Further, the caspase-1 % inhibition in the series with caspase-1 is 0%.
For `C=C1[C@@]2(C)C[C@H]3[C@@]4(C)C(=CC[C@]3(C)[C@]1(C(=O)OC)C(=O)[C@@](C)(O)C2=O)C(C)(C)C(=O)C[C@H]4O` [Berkeleytrione (9), berkeleytrione], the IC50 in series [1] is 180 µM.
Broadly, the GI50 is the concentration giving 50% growth inhibition. For the molecule `CCCCC[C@@H]1Cc2cc(O)c(C(=O)O)c3c2[C@H](C[C@]2(OC[C@H](CC(=O)C(C)(CC)C(=O)OC)[C@H]2C)O3)O1` (stereo partly drawn) [Berkelic acid (1), berkelic acid], in the series on OVCAR-3, the “activity in the NCI-DTP60 against OVCAR-3” value was “active”. In the series on OVCAR-3 (read-out: GI50 NCI-DTP: OVCAR-3, NCI-DTP 60), the GI50 was 0.091 µM. Further, the values for the IC50 (in [1]; on caspase-1) were 1.87 µM and 98 µM, respectively.
Consider `COc1cc(OC)c2c(c1)C(=O)O[C@H]2c1coc(C)cc1=O` [Penisimplicissimum (30), penisimplicissin], for which the “leukemia CCRFCEM log10 GI50” value in the series on leukemia CCRFCEM is given as “leukemia CCRFCEM: log10 GI50 (−6.70)”. The “leukemia HL-60 log10 GI50” value in the series on leukemia HL-60 is recorded as “leukemia HL-60: log10 GI50 (−5.83)”. The “Caspase-1 IC100” value in the series with caspase-1 is given as “Caspase-1: 100 μg/mL”.
As to `C=C1[C@@]2(C)C[C@H]3[C@]4(C)CCC(=O)OC(C)(C)[C@@H]4CC[C@]3(C)[C@]1(C(=O)OC)C(=O)[C@@](C)(O)C2=O` [Preaustinoid A1(11), Preaustinoid A1], the IC50 in series [2] was 34.3 µM. Also, the caspase-1 % inhibition with caspase-1 is given as 77%.
Regarding `C=C1[C@@]2(C)C[C@H]3[C@]4(C)CCC(=O)C(C)(C)[C@H]4CC[C@]3(C)[C@]1(C(=O)OC)C(=O)[C@@](C)(O)C2=O` [Preaustinoid A (10), preaustinoid A], the IC50 in series [2] is 15.5 µM. In the series with caspase-1, the “caspase-1 inhibition” value is reported as “inhibited caspase-1 activity” and the caspase-1 % inhibition was 97%.
Turning to `C/C=C/c1cc(=O)c([C@@H]2OC(=O)c3cc(OC)cc(OC)c32)co1` [Vermistatin (28), vermistatin], the “caspase-1 inhibition” value in the series on caspase-1 (setting [9]) was “not inhibitory”.
`C[C@@H]1O[C@@H]2OC(=O)[C@]3(C)C[C@@H]4[C@](C)(C(=O)C=C5C(=CC(=O)OC5(C)C)[C@@]45CO5)[C@H](C1=O)[C@H]23` [berkeleyacetal C (19), berkeleyacetal C]: the “growth inhibition of NCI H460” value in series [4] was “inhibited the growth”. For the same molecule, the “growth inhibition of all leukemia cell lines” value in the series on all leukemia cell lines is reported as “inhibited the growth”. In [1], the “MMP-3 inhibition, concentration range” value is “micromolar range”. Further, the “caspase-1 inhibition, concentration range” value in the series on caspase-1 is “micromolar range”.
`COC(=O)[C@]12C(=O)[C@H](C)O[C@@H]3OC(=O)[C@](C)(C[C@H]4C(C)=C5CC(=O)OC(C)(C)C5=CC[C@@]41C)[C@@H]32` [berkeleyacetals A (17), berkeleyacetal A]: the “MMP-3 inhibition, concentration range” value in series [1] is given as “mM range”. Moreover, the “caspase-1 inhibition, concentration range” value with caspase-1 is recorded as “mM range”.
Regarding `C/C=C(\C)C(=O)O[C@H]1C=CC(=O)O[C@H]1/C=C\C(=O)C(C)O` (stereo partly drawn) [compound 33, Phomopsolide A], the IC50 in the series with HeLaS3 [5] is 6.3 µM; with UMUC3 [6] it was 6.5 µM; with HeLaS3 [7] it was 5 µM; in the series on UMUC3 [8] it was 4.8 µM; in series [1], 100 µM.
Turning to `C/C=C(\C)C(=O)O[C@H]1C=CC(=O)O[C@H]1/C=C/[C@H](O)[C@H](C)O` [compound 34, Phomopsolide B], the IC50 with UMUC3 [8] is 6.1 µM.
For the molecule `C/C=C(\C)C(=O)O[C@H]1C=CC(=O)O[C@H]1/C=C/C(=O)[C@H](C)O` [compound 35, Phomopsolide C], the IC50 in the series on HeLaS3 [5] is 3.6 µM; in the series on UMUC3 [6], 2.2 µM; in the series with HeLaS3 [7] it was 2.7 µM; in the series with H3255 it was 2.6 µM; with UMUC3 [8], 1.4 µM; in the series with Y79, 1.4 µM.
Regarding `C/C=C(\C)C(=O)O[C@H]1C=CC(=O)O[C@H]1CCC(=O)[C@H](C)O` [compound 36, Phomopsolide E], the IC50 is 7.3 µM in the series with HeLaS3 [7] and 6.6 µM in the series on UMUC3 [8].
As for `CCCCCCCCCC(=O)[C@@]12O[C@@]13C1=COC(C[C@H](C)O)=CC1=CC(=O)[C@]3(C)OC2=O` [compound 45, berkchaetoazaphilone B], the “caspase-1 inhibition” value in the series with caspase-1 is reported as “strongest caspase-1 inhibitor”.
On to `CCCc1cc(=O)c([C@@H]2OC(=O)c3cc(OC)cc(OC)c32)co1` [dihydrovermistatin (29), dihydrovermistatin], for which the “caspase-1 inhibition” value with caspase-1 (setting [9]) was “not inhibitory”.
In the case of “Berkebisabolane A [Berkebisabolane A (4)]”, the IC50 is 0.28 µM in series [1] and 23 µM on caspase-1.
“Berkebisabolane B [Berkebisabolane B (5)]”: the values for the IC50 (in [1]; at caspase-1) were 0.315 µM and 23 µM, respectively.
On to “Berkebisabolane C [Berkebisabolane C (6)]”, for which the IC50 in [1] was 0.34 µM; on caspase-1 it was 23 µM.
With Berkedrimane A [Berkedrimane A (31)], the “inhibition of cytokine production” value in [2] was “completely inhibited”. Besides, the “caspase-1 IC50” value at caspase-1 is 60 µg/mL.
In the case of phompyrone [compound 38], the IC50 in [1] was more than 100 µM.
